Tests used:
[1] = test system: T cell population (CD3+, CD4+, CD8+ T cells); assay: Whole blood loop assay: flow cytometry of blood donor T cells (activation markers, viability); type: cell-based, human; details: groups with and without dextran sulfate; 60 min; FIGS. 3A to 3I
Excerpt: (§1) Blood from healthy donors was taken in an open system and immediately mixed with test compounds (CD19-CAR T cells and dextran sulfate (Tikomed AB, Sweden, WO 2016/076780, referred to as IBsolvMIR in the figures). Autologous setting included CAR-T cells generated from the same donor that donated whole blood. In allogeneic setting, blood and CAR-T cells were not matched (from different donors). All materials in direct contact with whole blood were surface heparinized in accordance with the manufacturers protocol (Corline, Sweden). Whole blood (2 ml) was added to PVC-tubing, which, with a surface heparinized metal connector, formed a loop. The dextran sulfate (0.2 g/L) and CAR-T cells (0.5-5×10^6 cells) were added according to Table 1, and the loops were set to rotate on a wheel at 37° C. Blood aliquots were sampled, andeEthylenediaminetetraacetic acid (EDTA) was added to a final concentration of 10 mM to stop reactions at a given time-point. […]
(§2) The plasma samples were kept on ice, and plasma was collected by centrifugation at 2000×g at 4° C. for 20 minutes. […] Antibody master mix was incubated with whole blood for 30 min at 4° C., washed with PBS and analyzed using Cytoflex (Beckman Coulter).

[2] = test system: B cell population (CD19+); assay: Whole blood loop assay: flow cytometry of B cells (count, CD69, CD107a); type: cell-based, human
Excerpt: as §1, §2

C3a = assay: Complement analysis (C3a) ELISA on plasma from whole blood loops; set-up: species or system human; details: data not shown
Method: The plasma samples were kept on ice, and plasma was collected by centrifugation at 2000×g at 4° C. for 20 minutes. The plasma was stored at −70° C. until the time of analysis. Complement analysis (C3a) was performed on plasma collected at various time points after assay start with ELISA kits from RayBiotech according to the manufacturers instructions. For experiments involving flow cytometry, blood samples were mixed with EDTA (final concentration of 10 mM), followed by the Fc block (BD Biosciences) and antibody master mix containing anti-human fluorochrome-labeled antibodies for surface staining (CD3, CD4, CD8, CD20, CD56, CD16, CD66b, CD14, BioLegend), including activation markers (CD107a, CD69, CD11b, Biolegend). Antibody master mix was incubated with whole blood for 30 min at 4° C., washed with PBS and analyzed using Cytoflex (Beckman Coulter).

whole blood = assay: Human whole blood loop assay: ACT kaolin time and prothrombin/INR time (i-STAT cartridges); details: for Activated clotting time (ACT) / Prothrombin time (PT) / international normalized ration (INR): dextran sulfate 0.2 mg/ml, no CAR-T cells
Method: The objective of this Example was to investigate dextran sulfate in a human whole blood loop assay in combination with CAR-T cells. Cellular activation and viability and blood status was assessed after incubation in the human whole loop system with dextran sulfate with and without CAR-T cells.
Blood from healthy donors was taken in an open system and immediately mixed with test compounds (CD19-CAR T cells and dextran sulfate (Tikomed AB, Sweden, WO 2016/076780, referred to as IBsolvMIR in the figures). Autologous setting included CAR-T cells generated from the same donor that donated whole blood. In allogeneic setting, blood and CAR-T cells were not matched (from different donors). All materials in direct contact with whole blood were surface heparinized in accordance with the manufacturers protocol (Corline, Sweden). Whole blood (2 ml) was added to PVC-tubing, which, with a surface heparinized metal connector, formed a loop. The dextran sulfate (0.2 g/L) and CAR-T cells (0.5-5×10^6 cells) were added according to Table 1, and the loops were set to rotate on a wheel at 37° C. Blood aliquots were sampled, andeEthylenediaminetetraacetic acid (EDTA) was added to a final concentration of 10 mM to stop reactions at a given time-point. The automated hematology analyzer XP-300 or XN-350 (Sysmex) was used to assess blood cell count at different time points, while i-STAT cartridges (Abbott) were used to measure ACT kaolin time and prothrombin/INR time measurements.

CAR-T cell population = assay: Whole blood loop assay: flow cytometry of CAR-T cell population (CAR marker, CD69, CD107a, viability); type: cell-based, human
Method: Peripheral blood mononuclear cells (PBMCs) were isolated from healthy donors using Lymphoprep (Progen), stored in −70° C. in freezing medium (10% dimethyl sulfoxide (DMSO), 90% fetal calf serum (FCS)) and cultured in RPMI-1640 supplemented with 10% FCS and 1% penicillin/streptomycin. The PBMCs were activated with 1 μg/ml OKT-3 (Biolegend) and 200 IU/ml IL-2 (Roche) for 1 day to selectively stimulate T cells. Retronectin plates (Takara) were prepare in advance (7 μg per well, overnight at 4° C.) and incubated twice with 500 μl concentrated CD19-CAR-encoding retrovirus (2G) or Mock retrovirus, previously described in Karlsson et al., Evaluation of Intracellular Signaling Downstream Chimeric Antigen Receptors, PLOS ONE 2015, 10(12):e0144787, for 30 min at 37° C. Activated cells were transduced with 3 ml concentrated CD19-CAR-encoding retrovirus or Mock retorvirus for 2 days at 37° C. in the presence of retronectin-coated plates and 100 IU IL-2. Cells were cultured with 100 IU/ml IL-2 and expanded for 2 weeks before analysis. For analysis of CD19-CAR expression, cells were stained with 0.5 μl of anti-CAR-Dylight649 (Jackson ImmunoResearch), washed with phosphate-buffered saline (PBS) and followed by surface labeling (CD3, CD8, CD4, TF). Flow cytometry analysis was performed using Cytoflex (Beckman Coulter). Cell count and cell viability was determined using trypan blue (T-20 Counter, Bio-Rad).
as §1, §2

monocyte population = assay: Whole blood loop assay: CD11b on monocytes by flow cytometry; type: cell-based, human; details: addition of dextran sulfate to loops; FIG. 9A
Excerpt: as §1, §2

granulocyte population = assay: Whole blood loop assay: CD11b on granulocytes by flow cytometry; type: cell-based, human; details: addition of dextran sulfate to loops; FIG. 9B
Excerpt: as §1, §2

[3] = allogenic donor, time point 60 min
[4] = autologous donor, time point 10 min
[5] = autologous donor, time point 60 min

dextran sulfate
viability and activation of T cell population (blood donors CD3+, CD4+, CD8+ T cells) [1]: similar
impact on CAR functionality ([2]; from B cell count and activation pattern): did not have any negative impact
B cell count and activation pattern ([2]; samples with or without dextran sulfate): similar
C3a levels (C3a; in co-administration with CAR-T cells): decreased levels of C3a
C3a levels (C3a; substance added alone, both donors): decreased levels of C3a
coagulation measurements (ACT, PTT, INR) (whole blood; Table 2 and Table 3, autologous and allogenic donor): rise in all coagulation measurements
Activated clotting time (ACT) (whole blood; [3]): 356 s
Prothrombin time (PT) (whole blood; [3]): 30.7 s
international normalized ration (INR) (whole blood; [3]): 2.7
Activated clotting time (ACT) (whole blood; [4]): 485 s
Prothrombin time (PT) (whole blood; [4]): 16.5 s
international normalized ration (INR) (whole blood; [4]): 1.4
Prothrombin time (PT) (whole blood; [5]): 17.9 s
international normalized ration (INR) (whole blood; [5]): 1.5
percentage of cells positive for the CAR-T cell specific marker in the T cell population (CAR-T cell population; allogenic donor, FIG. 4A): increased
viability of the CAR-T cells (CAR-T cell population; autologous donor, without or with dextran sulfate, FIG. 5C): ~60%
proportion of CD3+ CAR-T cells and CD8+ CAR-T cells, autologous versus allogenic groups (CAR-T cell population; when dextran sulfate was added): more similar
levels of activation markers (CD69, CD107a) in the allogenic CAR-T cell groups (CAR-T cell population; with dextran sulfate, compared with autologous CAR-T cell groups, FIGS. 5A, 5B and 6): more similar to the levels of activation markers in the autologous CAR-T cell groups
expression of activation marker CD11 b on monocytes (monocyte population): decreased
expression of activation marker CD11 b on granulocytes (granulocyte population): decreased

Source: patent publication US20220267728A1, “ALLOGENIC CAR-T CELL THERAPY” (TX MEDIC AB, priority 2019, published 2022)
